Data from patent US9290478B2, “Substituted quinoxalines as FGFR kinase inhibitors” (ASTEX THERAPEUTICS LTD, priority 2010, dated 2016).

Tests used:
[1] = molecular target: FGFR3 (h) (Homo sapiens, UniProt P22607); assay: FGFR3 (enzymatic assay), TR-FRET; type: biochemical; settings: 25 μM ATP; read-out: FGFR3 pIC50 (converted)
Method: In a final reaction volume of 30 μL, FGFR3 (h) (40 ng/ml) was incubated with 50 mM HEPES pH 7.5, 6 mM MnCl2, 1 mM DTT, 0.1 mM Na3VO4, 0.01% Triton-X-100, 500 nM Btn-Flt3 and 25 μM ATP in the presence of compound (1% DMSO final). After incubation for 60 minutes at room temperature the reaction was stopped with 2.27 nM EU-anti P-Tyr, 7 mM EDTA, 31.25 nM SA-XL-665 and 0.02% BSA which was present for 60 minutes at room temperature. Time-Resolved Fluorescence Resonance Energy Transfer (TR-FRET) signal (ex340 nm. Em 620 nm, em 655 nm) was measured afterwards and results are expressed in RFU (Relative Fluorescence Units). In this assay, the inhibitory effect of different compound concentrations (range 10 μM to 0.1 nM) was determined and used to calculate an IC50 (M) and pIC50 (−log IC50) value.

[2] = molecular target: T1, VEGFR2 (Homo sapiens, UniProt P35968); assay: Biological Assays B: VEGFR2 in vitro kinase inhibitory activity assay; type: biochemical; settings: 0.5 μM ATP, read-out: VEGFR2 pIC50 (converted)
T1 construct: purchased Upstate
Method: (§1) Biological Assays B FGFR3, VEGFR2 and PDGFR In Vitro Kinase Inhibitory Activity Assays
(§2) Enzymes (from Upstate), prepared at 2× final concentration, were incubated with test compounds, biotinylated Fit3 substrate (biotin-VASSDNEYFYVDF) (Cell Signalling Technology Inc.) and ATP in the appropriate assay buffer (Table 1). The reaction was allowed to proceed for 3 hours (FGFR3), 1 hour (VEGFR2, PDGFR-beta) at room temperature on a plate shaker at 700 rpm before being stopped with 35 mM EDTA, pH 8 (FGFR3, VEGFR2) or 55 mM EDTA, pH 8 (PDGFR-beta). 5× detection mix (50 mM HEPES pH 7.5, 0.1% BSA, 11.34 nM Eu-anti-pY (PY20) (PerkinElmer) 74 nM SA-XL665 (Cisbio) for FGFR3, 50 mM HEPES, pH 7.5, 0.1% BSA, 11.34 nM Eu-anti-pY (PY20), 187.5 nM SA-XL665 for VEGFR2 and 50 mM HEPES, pH 7.5, 0.1% BSA, 11.34 nM Eu-anti-pY (PT66) (PerkinElmer), 375 nM SA-XL665 (Cisbio) for PDGFR-beta) was then added to each well and the plate sealed and incubated at room temperature for one hour on a plate shaker at 700 rpm. The plate was then read on a Packard Fusion plate reader or a BMG Pherastar both in TRF mode.

[3] = molecular target: T2, Ba/F3-TEL-FGFR3 cells (Homo sapiens, UniProt P22607); assay: Ba/F3-TEL-FGFR3 cell proliferation assay; type: cell-based; settings: 72 hours
T2 construct: fused on or other part: P41212 (Transcription factor ETV6)
Method: (§3) Ba/F3-TEL-FGFR3 & Ba/F3 (WT) Cell Proliferation Assays
(§4) Stably transfected Ba/F3-TEL-FGFR3 cells were plated out into black 96-well tissue culture plates with clear bottoms in RPMI medium containing 10% FBS and 0.25 mg/ml G418 at a density of 5×10^3 cells/well (200 μl per well). The parental wild-type Ba/F3 cells (DSMZ no.: ACC 300) were plated out into black 96-well tissue culture plates with clear bottoms in RPMI medium containing 10% FBS and 2 ng/ml mouse IL-3 (R&D Sysems) at a density of 2.5×10^3 cells/well (200 μl per well). Plates were placed in an incubator overnight before adding the compounds the following day. Dilutions of compounds were made in DMSO starting at 10 mM and were diluted into the wells to give a final DMSO concentration of 0.1% in assay. Compounds were left on the cells for 72 hours before the plates were removed from the incubator and 20 μl of Alamar Blue™ (Biosource) was added to each well. Plates were placed in the incubator for 4-6 hours before reading plates at 535 nm (excitation)/590 nm (emission) on a Fusion plate reader (Packard). Where inhibition is high an IC50 can be determined.

[4] = molecular target: T3, FGFR3 (Homo sapiens, UniProt P22607); assay: Biological Assays B: FGFR3 in vitro kinase inhibitory activity assay; type: biochemical; settings: 8 μM ATP, read-out: FGFR3 pIC50 (converted)
T3 construct: purchased Upstate
Method: as §1, §2

[5] = tested on: parental wild-type Ba/F3 cells; assay: Ba/F3 (WT) cell proliferation assay; type: cell-based; settings: BaF3; 72 hours, 2 ng/ml mouse IL-3; read-out: BAF3_WT pIC50 (converted)
Method: as §3, §4

T1 sequence (P35968 20-1356): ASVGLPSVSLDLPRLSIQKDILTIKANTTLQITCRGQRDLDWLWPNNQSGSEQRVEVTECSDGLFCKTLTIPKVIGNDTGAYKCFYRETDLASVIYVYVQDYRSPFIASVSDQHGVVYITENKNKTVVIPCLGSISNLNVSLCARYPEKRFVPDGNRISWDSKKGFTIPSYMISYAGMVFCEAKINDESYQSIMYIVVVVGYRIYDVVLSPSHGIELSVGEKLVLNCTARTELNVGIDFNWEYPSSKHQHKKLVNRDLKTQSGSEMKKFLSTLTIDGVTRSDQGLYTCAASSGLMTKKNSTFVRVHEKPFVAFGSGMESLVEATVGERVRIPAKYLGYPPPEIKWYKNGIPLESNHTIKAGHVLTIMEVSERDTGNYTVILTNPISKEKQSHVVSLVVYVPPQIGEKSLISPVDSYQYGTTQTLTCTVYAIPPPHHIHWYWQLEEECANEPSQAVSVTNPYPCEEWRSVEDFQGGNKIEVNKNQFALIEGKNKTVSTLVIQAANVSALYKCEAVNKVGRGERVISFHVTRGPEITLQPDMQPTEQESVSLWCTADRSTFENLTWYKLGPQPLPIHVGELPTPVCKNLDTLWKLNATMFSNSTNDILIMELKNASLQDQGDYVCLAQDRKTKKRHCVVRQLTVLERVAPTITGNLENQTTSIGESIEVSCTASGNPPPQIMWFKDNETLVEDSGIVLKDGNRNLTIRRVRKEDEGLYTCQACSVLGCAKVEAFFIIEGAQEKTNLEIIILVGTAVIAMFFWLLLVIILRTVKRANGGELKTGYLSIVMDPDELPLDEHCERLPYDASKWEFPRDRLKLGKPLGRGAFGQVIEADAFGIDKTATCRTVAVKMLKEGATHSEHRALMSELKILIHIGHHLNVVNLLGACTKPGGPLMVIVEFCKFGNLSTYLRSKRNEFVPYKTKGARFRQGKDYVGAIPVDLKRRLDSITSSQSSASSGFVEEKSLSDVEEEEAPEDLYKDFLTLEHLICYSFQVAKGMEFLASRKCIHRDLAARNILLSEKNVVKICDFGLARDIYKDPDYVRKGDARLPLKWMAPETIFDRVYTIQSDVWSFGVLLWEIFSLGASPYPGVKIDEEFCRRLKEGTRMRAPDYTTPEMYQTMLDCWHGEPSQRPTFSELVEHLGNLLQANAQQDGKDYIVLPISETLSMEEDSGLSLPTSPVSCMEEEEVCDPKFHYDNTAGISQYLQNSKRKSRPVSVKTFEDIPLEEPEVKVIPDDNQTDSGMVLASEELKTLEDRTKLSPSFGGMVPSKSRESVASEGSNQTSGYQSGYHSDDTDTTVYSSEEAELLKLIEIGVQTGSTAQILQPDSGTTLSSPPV
FGFR3 (h), sequence (P22607 23-806): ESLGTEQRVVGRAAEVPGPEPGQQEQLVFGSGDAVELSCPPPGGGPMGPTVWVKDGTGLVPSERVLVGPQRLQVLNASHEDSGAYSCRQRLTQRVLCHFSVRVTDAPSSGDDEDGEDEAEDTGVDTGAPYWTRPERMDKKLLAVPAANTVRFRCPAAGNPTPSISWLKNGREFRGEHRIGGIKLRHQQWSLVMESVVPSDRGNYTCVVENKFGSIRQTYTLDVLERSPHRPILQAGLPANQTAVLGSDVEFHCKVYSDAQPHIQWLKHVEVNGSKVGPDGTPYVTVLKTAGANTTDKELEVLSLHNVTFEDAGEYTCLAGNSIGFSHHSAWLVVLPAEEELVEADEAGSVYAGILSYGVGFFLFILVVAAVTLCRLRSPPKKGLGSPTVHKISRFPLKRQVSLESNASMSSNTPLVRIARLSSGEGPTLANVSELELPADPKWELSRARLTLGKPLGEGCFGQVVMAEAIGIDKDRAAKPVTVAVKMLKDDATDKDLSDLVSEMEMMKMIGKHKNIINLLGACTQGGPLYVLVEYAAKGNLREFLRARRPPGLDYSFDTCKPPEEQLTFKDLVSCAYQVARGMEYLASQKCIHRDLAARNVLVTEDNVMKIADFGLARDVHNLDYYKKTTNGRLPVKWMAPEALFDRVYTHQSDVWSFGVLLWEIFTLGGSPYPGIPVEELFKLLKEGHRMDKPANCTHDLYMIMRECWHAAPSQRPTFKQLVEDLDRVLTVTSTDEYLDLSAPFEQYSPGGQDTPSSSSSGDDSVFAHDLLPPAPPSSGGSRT
T2 sequence (P22607 whole entry, change not shown, the tested form may be a part): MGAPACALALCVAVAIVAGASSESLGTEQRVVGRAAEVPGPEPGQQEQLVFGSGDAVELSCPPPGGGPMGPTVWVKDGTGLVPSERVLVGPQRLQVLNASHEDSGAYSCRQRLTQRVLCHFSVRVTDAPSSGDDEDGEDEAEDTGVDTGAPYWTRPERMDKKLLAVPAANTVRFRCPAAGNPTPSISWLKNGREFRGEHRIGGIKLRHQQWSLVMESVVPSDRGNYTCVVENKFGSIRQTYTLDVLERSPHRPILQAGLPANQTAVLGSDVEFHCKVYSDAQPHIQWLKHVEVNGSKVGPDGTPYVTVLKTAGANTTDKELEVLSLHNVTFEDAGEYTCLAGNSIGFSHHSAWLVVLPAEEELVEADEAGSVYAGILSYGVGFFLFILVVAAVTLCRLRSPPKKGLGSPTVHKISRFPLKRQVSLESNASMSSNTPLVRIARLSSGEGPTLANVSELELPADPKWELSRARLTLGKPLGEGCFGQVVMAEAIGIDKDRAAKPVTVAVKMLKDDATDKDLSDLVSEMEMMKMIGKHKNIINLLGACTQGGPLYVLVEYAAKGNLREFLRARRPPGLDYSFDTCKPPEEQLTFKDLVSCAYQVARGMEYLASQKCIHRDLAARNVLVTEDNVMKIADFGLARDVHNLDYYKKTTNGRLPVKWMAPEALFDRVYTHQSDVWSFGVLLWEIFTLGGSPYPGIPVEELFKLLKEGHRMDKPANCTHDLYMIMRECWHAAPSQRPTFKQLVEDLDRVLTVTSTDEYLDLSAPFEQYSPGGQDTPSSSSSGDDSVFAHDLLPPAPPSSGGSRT
T3 sequence (P22607 23-806): as the sequence (P22607 23-806) above

Structure (SMILES)	IC50 [1]	melting point	further results
COc1cc(OC)cc(C(O)(CNCCNC(C)C)c2ccc3ncc(-c4cnn(C)c4)nc3c2)c1 (single isomer, unassigned) [Compound 5]	0.575 µM		
COc1cc(OC)cc(C(O)(CNCCNC(C)C)c2ccc3ncc(-c4cnn(C)c4)nc3c2)c1 (single isomer, unassigned) [Compound 6]	0.676 µM		
COc1cc(OC)cc(C(CCNC(C)C)c2ccc3ncc(-c4cnn(C)c4)nc3c2)c1 (single isomer, unassigned) [Compound 19a]	0.0214 µM		
COc1cc(OC)cc(C(NCCNC(C)C)c2ccc3ncc(-c4cnn(C)c4)nc3c2)c1.Cl (single isomer, unassigned) [Compound 24]	0.257 µM		
COc1cc(OC)cc(C(=O)c2ccc3ncc(-c4cnn(C)c4)nc3c2)c1 [Compound 2]	0.0661 µM	162 °C	
COc1cc(OC)cc(/C(=C/C#N)c2ccc3ncc(-c4cnn(C)c4)nc3c2)c1 [Compound 3]	2.19 µM	223 °C	
COc1cc(OC)cc(/C(=C\C#N)c2ccc3ncc(-c4cnn(C)c4)nc3c2)c1 [Compound 4]	0.0363 µM	204 °C	
COc1cc(OC)cc(C(CCN2CCCC2=O)c2ccc3ncc(-c4cnn(C)c4)nc3c2)c1.Cl (stereo not drawn) [Compound 7]	~0.0126 µM		
COc1cc(OC)cc(/C(=C\CNC(C)C)c2ccc3ncc(-c4cnn(C)c4)nc3c2)c1 [Compound 8, {(Z)-3-(3,5-Dimethoxy-phenyl)-3-[3-(1-methyl-1H-pyrazol-4-yl)-quinoxalin-6-yl]-allyl}-isopropyl-amine]	0.00871 µM	164 °C	
COc1cc(OC)cc(/C(=C/CNC(C)C)c2ccc3ncc(-c4cnn(C)c4)nc3c2)c1 [Compound 9]	0.123 µM		
COc1cc(OC)cc(/C(=C\CN(C)C)c2ccc3ncc(-c4cnn(C)c4)nc3c2)c1 [Compound 10, {(Z)-3-(3,5-Dimethoxy-phenyl)-3-[3-(1-methyl-1H-pyrazol-4-yl)-quinoxalin-6-yl]-allyl}-dimethyl-amine]	0.00912 µM	164 °C	
COc1cc(OC)cc(/C(=C\CNCC(F)(F)F)c2ccc3ncc(-c4cnn(C)c4)nc3c2)c1 [Compound 14, {(Z)-3-(3,5-Dimethoxy-phenyl)-3-[3-(1-methyl-1H-pyrazol-4-yl)-quinoxalin-6-yl]-allyl}-(2,2,2-trifluoro-ethyl)-amine]	0.00468 µM		
COc1cc(OC)cc(C(CC#N)c2ccc3ncc(-c4cnn(C)c4)nc3c2)c1 (stereo not drawn) [Compound 18]	0.0437 µM		IC50 [2]: 6.31 µM
COc1cc(OC)cc(C(CCN)c2ccc3ncc(-c4cnn(C)c4)nc3c2)c1.Cl (stereo not drawn) [Compound 20]	0.0617 µM	211 °C	IC50 [2]: 3.16 µM
COc1cc(OC)cc(C(CCN(C)C)c2ccc3ncc(-c4cnn(C)c4)nc3c2)c1.Cl (stereo not drawn) [Compound 21]	0.0676 µM		
COc1cc(OC)cc(C(CCO)c2ccc3ncc(-c4cnn(C)c4)nc3c2)c1 (stereo not drawn) [Compound 22]	0.0513 µM	114 °C	IC50 [2]: 3.98 µM; BAF3_TEL_FGFR3 pIC50 [3]: 6.85
COc1cc(OC)cc(C(CC(=O)NC(C)C)c2ccc3ncc(-c4cnn(C)c4)nc3c2)c1 (stereo not drawn) [Compound 23]	> 1 µM	186 °C	
COc1cc(OC)cc(C(CC(C)(O)CNC(C)C)c2ccc3ncc(-c4cnn(C)c4)nc3c2)c1.Cl (stereo not drawn) [Compound 25]	0.708 µM		
Cn1cc(-c2cnc3ccc(C(O)c4ccccc4)cc3n2)cn1 (stereo not drawn) [Compound 28]	3.72 µM		

Second part, led by results:

IC50 [1]	melting point	Structure (SMILES)	further results
~0.912 µM		COc1cc(OC)cc(C(CCNC(C)C)c2ccc3ncc(-c4cnn(C)c4)nc3c2)c1 (single isomer, unassigned) [Compound 32a]	
0.537 µM	174 °C	CNCC(O)(c1cc(OC)cc(OC)c1)c1ccc2ncc(-c3cnn(C)c3)nc2c1.Cl (single isomer, unassigned) [Compound 37]	
> 1 µM	169 °C	CNCC(O)(c1cc(OC)cc(OC)c1)c1ccc2ncc(-c3cnn(C)c3)nc2c1.Cl (single isomer, unassigned) [Compound 38]	
> 1 µM		COc1cc(OC)cc(C(NCCNC(C)C)c2ccc3ncc(-c4cnn(C)c4)nc3c2)c1.Cl (single isomer, unassigned) [Compound 39]	
0.0355 µM	148 °C	COc1cc(OC)cc(C(CCNC(C)C)c2ccc3ncc(-c4cnn(C)c4)nc3c2)c1.Cl (stereo not drawn) [Compound 29, {3-(3,5-Dimethoxy-phenyl)-3-[3-(1-methyl-1H-pyrazol-4-yl)-quinoxalin-6-yl]-propyl}-isopropyl-amine]	IC50 [4]: 0.02 µM; IC50 [2]: 1 µM; BAF3_TEL_FGFR3 pIC50 [3]: 7.7; IC50 [5]: 5.01 µM
0.0437 µM	140 °C	COc1cc(OC)cc(C2(c3ccc4ncc(-c5cnn(C)c5)nc4c3)CC2)c1 [Compound 30]	IC50 [4]: 0.02 µM; IC50 [2]: 0.282 µM
0.138 µM	162 °C	COc1cc(OC)cc(C(CCNCC(F)(F)F)c2ccc3ncc(-c4cnn(C)c4)nc3c2)c1.Cl (stereo not drawn) [Compound 33]	
0.107 µM	177 °C	COc1cc(OC)cc(/C(=C/CN(C)C)c2ccc3ncc(-c4cnn(C)c4)nc3c2)c1 [Compound 34]	
> 1 µM		CN(C)CCC(c1ccccc1)c1ccc2ncc(-c3cnn(C)c3)nc2c1 (stereo not drawn) [Compound 35]	
0.269 µM	140 °C	COc1cc(OC)cc(C(CCCN)c2ccc3ncc(-c4cnn(C)c4)nc3c2)c1.Cl (stereo not drawn) [Compound 40]	
